Assay results taken from paper PMC5041959, “A high-content EMT screen identifies multiple receptor tyrosine kinase inhibitors with activity on TGFβ receptor” (Oncotarget, 2016).
Where two headings read alike, the source gives them in different places.

Assays:
NMuMG cells [1] = assay: High-content microscopy EMT screen in TGFβ-treated NMuMG cells (FA, SF, FN, cell count); assay type: cell-based, murine
Py2T cells = assay: High-content microscopy EMT assay in TGFβ-treated Py2T breast cancer cells; assay type: cell-based, murine; settings: Py2T
[2] = mice, single dose of 50 mg/kg; cited from earlier work
TGFBR1 = target: T1, TGFBR1 (Homo sapiens, UniProt P36897); assay: Biochemical kinase profiling (33PanQinase radiometric assay)
T1 sequence (P36897 34-503): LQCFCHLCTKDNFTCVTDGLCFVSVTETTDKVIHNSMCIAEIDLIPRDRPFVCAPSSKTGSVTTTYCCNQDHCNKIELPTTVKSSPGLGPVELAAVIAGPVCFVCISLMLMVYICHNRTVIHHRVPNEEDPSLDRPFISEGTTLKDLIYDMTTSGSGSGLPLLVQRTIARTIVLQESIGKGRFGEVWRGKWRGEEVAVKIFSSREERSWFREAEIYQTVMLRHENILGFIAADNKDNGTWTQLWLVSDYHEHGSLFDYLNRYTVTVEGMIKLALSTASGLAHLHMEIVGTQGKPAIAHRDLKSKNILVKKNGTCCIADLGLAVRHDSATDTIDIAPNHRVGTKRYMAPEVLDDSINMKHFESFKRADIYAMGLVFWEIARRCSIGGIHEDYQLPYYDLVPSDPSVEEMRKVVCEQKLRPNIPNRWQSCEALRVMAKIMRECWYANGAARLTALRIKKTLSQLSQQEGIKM

TGFBR2 = TGFBR2 (Homo sapiens, UniProt P37173); assay: as above
[3] = cited from earlier work
[4] = cited from earlier work; remark: listed apart in the source
c-KIT = target: T2, c-KIT (Homo sapiens, UniProt P10721); assay: Biochemical kinase profiling (33PanQinase radiometric assay); settings: ATP at apparent Km
T2 construct: purchased ProQinase (Freiburg, Germany)

VEGFR1 = target: T3, VEGFR1 (Homo sapiens, UniProt P17948); assay: as above; settings: ATP at apparent Km
T3 construct: purchased ProQinase (Freiburg, Germany)

VEGFR3 = target: T4, VEGFR3 (Homo sapiens, UniProt P35916); assay: as above; settings: ATP at apparent Km
T4 construct: purchased ProQinase (Freiburg, Germany)

EGFR = EGFR (Homo sapiens, UniProt P00533); assay: as above; settings: read-out: EGFR IC50; ATP at apparent Km
FGFR1 = FGFR1 (Homo sapiens, UniProt P11362); assay: as above; settings: read-out: FGFR1 IC50; ATP at apparent Km
FGFR2 = FGFR2 (Homo sapiens, UniProt P21802); assay: as above; settings: read-out: FGFR2 IC50; ATP at apparent Km
FGFR3 = FGFR3 (Homo sapiens, UniProt P22607); assay: as above; settings: read-out: FGFR3 IC50; ATP at apparent Km
FGFR4 = FGFR4 (Homo sapiens, UniProt P22455); assay: as above; settings: read-out: FGFR4 IC50; ATP at apparent Km
PDGFRA = PDGFRA (Homo sapiens, UniProt P16234); assay: as above; settings: read-out: PDGFRA IC50; ATP at apparent Km
PDGFRB = PDGFRB (Homo sapiens, UniProt P09619); assay: as above; settings: read-out: PDGFRB IC50; ATP at apparent Km
SRC = SRC (Homo sapiens, UniProt P12931); assay: as above; settings: read-out: SRC IC50; ATP at apparent Km
VEGFR2 = target: T5, VEGFR2 (Homo sapiens, UniProt P35968); assay: as above; settings: ATP at apparent Km
T5 construct: purchased ProQinase (Freiburg, Germany)

NMuMG cells [5] = assay: E-cadherin, ZO1 and vimentin immunofluorescence in TGFβ-treated NMuMG cells; assay type: cell-based, murine; settings: four days TGFβ plus inhibitor
Method: NMuMG and Py2T cells were trypsinized, washed, seeded at 1000 cells/well, resuspended in 40 μl growth medium with a Multidrop-384 (Titertek) in 384-well microplates (Greiner, 781091), and grown overnight at 37°C, 5% CO2. The next day, 111 μl growth medium was added with the Multidrop-384 to 1 μl of the 2 mM library compounds of which 10 μl was transferred with a 384-well pipettor (VPrep, Agilent, US) to the cell assay plate and equilibrated for 10 min (final compound concentration 3 μM). For screenings at 300 nM or 30 nM, the compounds were diluted 1:10 or 1:100 in growth medium, respectively, before use. […]
Cells were imaged using the automated epifluorescence microscope ImageXpress Micro from Molecular Devices (Sunnyvale CA, USA) equipped with a plate-loading robot (CRS Catalyst, Thermo Scientific). […] The images were automatically analyzed by MetaXpress and segmented into sub-cellular structures based on morphological features such as object size and fluorescence distribution. Fluorescence distribution was a measure of the threshold intensity above local background and was adjusted for all parameters (nuclei, FA, SF and FN) by means of the respective positive and negative controls to compensate for inter-experimental variations between the different screening batches. […] Vimentin was quantified similar to SF and FN using the Angiogenesis module. […]

[6] = Mus musculus, 96 h; NMuMG, TGFβ1 2 ng/ml plus compound, 4 days; parameter decreased by 50%; read-out: FA IC50 (focal adhesion formation)
[7] = Mus musculus, 96 h; NMuMG, TGFβ1 2 ng/ml plus compound, 4 days; parameter decreased by 50%; read-out: FN IC50 (fibronectin patch formation)
[8] = Mus musculus, 96 h; NMuMG, TGFβ1 2 ng/ml plus compound, 4 days; parameter decreased by 50%; read-out: SF IC50 (stress fibers)
[9] = Mus musculus; NMuMG; cell count decreased by 50% compared to DMSO control; read-out: Tox IC50
[10] = Mus musculus; NMuMG; mean of IC50 values obtained for FA, SF, FN; read-out: EMT (FA/SF/FN) combined IC50
[11] = Mus musculus; read-out: CCI IC50 (cell count increase)
[12] = Mus musculus; read-out: Emax (maximal effect on cell count)
[13] = NMuMG, TGFβ1 2 ng/ml plus compound, 4 days; parameter decreased by 50%; read-out: FA IC50 (focal adhesion formation)
[14] = NMuMG, TGFβ1 2 ng/ml plus compound, 4 days; parameter decreased by 50%; read-out: FN IC50 (fibronectin patch formation)
[15] = NMuMG, TGFβ1 2 ng/ml plus compound, 4 days; parameter decreased by 50%; read-out: SF IC50 (stress fibers)
[16] = NMuMG; cell count decreased by 50% compared to DMSO control; read-out: Tox IC50
[17] = NMuMG; cell count increased by 50% compared to 100% with 10 μM SB-431542; read-out: CCI IC50 (cell count increase)
[18] = NMuMG; compared to reference 10 μM SB-431542 = 100%
[19] = NMuMG; mean of IC50 values obtained for FA, SF, FN; read-out: EMT (FA/SF/FN) combined IC50
[20] = read-out: TGFBR2 IC50, ATP at apparent Km

TGFBR2, sequence (P37173 23-567): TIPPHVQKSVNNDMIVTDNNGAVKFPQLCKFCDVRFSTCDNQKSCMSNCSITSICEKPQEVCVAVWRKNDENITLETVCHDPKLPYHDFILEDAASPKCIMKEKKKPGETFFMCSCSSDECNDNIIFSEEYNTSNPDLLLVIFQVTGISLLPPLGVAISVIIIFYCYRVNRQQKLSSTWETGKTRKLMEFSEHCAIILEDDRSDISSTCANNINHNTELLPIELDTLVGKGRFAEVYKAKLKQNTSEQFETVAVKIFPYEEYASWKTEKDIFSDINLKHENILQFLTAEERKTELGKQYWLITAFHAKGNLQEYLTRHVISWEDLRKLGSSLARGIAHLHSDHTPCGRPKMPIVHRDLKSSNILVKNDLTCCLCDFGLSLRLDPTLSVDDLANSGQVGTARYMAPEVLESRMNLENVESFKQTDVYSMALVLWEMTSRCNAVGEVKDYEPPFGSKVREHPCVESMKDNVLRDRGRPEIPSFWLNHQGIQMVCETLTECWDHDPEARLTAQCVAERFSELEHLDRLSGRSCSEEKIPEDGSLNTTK
PDGFRB, sequence (P09619 33-1106): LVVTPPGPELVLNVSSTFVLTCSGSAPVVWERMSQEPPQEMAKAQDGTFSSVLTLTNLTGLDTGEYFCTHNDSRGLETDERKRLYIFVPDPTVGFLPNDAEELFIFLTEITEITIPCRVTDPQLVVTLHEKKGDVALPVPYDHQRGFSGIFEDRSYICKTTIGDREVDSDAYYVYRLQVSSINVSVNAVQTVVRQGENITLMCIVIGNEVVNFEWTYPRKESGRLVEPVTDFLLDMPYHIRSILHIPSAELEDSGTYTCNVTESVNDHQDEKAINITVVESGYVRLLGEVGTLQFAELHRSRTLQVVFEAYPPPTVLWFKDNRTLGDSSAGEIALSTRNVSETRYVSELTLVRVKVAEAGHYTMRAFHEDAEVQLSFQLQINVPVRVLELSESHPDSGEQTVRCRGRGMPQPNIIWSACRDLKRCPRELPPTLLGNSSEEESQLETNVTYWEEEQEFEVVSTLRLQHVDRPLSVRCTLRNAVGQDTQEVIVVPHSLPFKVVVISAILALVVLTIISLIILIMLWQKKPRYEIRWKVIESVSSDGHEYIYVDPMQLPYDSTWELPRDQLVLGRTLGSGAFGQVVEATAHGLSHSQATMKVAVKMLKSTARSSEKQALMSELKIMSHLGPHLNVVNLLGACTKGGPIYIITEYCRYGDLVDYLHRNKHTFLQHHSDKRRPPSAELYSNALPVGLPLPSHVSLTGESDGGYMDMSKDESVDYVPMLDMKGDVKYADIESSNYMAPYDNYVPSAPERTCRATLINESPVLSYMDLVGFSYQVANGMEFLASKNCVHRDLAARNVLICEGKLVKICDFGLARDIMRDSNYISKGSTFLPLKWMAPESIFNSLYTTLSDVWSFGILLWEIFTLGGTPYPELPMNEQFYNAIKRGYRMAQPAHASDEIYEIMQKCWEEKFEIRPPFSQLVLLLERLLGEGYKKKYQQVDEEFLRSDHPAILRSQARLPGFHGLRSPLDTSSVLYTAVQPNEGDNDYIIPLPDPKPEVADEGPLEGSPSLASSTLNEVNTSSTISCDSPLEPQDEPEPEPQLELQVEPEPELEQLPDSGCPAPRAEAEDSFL
PDGFRA, sequence (P16234 24-1089): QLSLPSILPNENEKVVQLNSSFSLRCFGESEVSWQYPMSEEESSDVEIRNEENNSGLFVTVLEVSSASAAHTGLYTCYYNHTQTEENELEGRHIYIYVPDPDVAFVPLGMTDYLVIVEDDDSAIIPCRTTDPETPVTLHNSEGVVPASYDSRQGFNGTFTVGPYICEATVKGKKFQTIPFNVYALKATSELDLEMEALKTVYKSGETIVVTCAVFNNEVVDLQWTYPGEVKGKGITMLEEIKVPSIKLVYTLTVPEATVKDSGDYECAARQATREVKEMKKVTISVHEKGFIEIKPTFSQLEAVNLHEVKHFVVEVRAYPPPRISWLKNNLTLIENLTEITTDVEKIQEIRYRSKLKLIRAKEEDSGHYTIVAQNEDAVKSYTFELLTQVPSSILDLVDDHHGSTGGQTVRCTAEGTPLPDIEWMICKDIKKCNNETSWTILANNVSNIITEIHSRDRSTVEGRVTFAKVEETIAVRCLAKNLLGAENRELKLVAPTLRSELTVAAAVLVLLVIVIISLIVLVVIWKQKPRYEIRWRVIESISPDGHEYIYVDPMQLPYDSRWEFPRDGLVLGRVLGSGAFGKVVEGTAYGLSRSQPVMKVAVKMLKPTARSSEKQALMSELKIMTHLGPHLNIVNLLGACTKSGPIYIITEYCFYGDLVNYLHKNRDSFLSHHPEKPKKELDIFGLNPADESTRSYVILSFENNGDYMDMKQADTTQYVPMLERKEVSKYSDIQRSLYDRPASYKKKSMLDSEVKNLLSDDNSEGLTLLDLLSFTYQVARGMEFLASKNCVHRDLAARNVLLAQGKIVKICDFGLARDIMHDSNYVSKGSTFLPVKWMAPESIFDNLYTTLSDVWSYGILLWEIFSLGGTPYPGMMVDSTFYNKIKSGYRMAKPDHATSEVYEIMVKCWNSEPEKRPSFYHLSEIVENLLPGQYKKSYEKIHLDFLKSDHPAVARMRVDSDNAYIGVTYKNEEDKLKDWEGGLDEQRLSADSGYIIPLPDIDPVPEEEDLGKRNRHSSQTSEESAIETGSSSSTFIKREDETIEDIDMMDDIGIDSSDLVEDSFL
EGFR, sequence (P00533 25-1210): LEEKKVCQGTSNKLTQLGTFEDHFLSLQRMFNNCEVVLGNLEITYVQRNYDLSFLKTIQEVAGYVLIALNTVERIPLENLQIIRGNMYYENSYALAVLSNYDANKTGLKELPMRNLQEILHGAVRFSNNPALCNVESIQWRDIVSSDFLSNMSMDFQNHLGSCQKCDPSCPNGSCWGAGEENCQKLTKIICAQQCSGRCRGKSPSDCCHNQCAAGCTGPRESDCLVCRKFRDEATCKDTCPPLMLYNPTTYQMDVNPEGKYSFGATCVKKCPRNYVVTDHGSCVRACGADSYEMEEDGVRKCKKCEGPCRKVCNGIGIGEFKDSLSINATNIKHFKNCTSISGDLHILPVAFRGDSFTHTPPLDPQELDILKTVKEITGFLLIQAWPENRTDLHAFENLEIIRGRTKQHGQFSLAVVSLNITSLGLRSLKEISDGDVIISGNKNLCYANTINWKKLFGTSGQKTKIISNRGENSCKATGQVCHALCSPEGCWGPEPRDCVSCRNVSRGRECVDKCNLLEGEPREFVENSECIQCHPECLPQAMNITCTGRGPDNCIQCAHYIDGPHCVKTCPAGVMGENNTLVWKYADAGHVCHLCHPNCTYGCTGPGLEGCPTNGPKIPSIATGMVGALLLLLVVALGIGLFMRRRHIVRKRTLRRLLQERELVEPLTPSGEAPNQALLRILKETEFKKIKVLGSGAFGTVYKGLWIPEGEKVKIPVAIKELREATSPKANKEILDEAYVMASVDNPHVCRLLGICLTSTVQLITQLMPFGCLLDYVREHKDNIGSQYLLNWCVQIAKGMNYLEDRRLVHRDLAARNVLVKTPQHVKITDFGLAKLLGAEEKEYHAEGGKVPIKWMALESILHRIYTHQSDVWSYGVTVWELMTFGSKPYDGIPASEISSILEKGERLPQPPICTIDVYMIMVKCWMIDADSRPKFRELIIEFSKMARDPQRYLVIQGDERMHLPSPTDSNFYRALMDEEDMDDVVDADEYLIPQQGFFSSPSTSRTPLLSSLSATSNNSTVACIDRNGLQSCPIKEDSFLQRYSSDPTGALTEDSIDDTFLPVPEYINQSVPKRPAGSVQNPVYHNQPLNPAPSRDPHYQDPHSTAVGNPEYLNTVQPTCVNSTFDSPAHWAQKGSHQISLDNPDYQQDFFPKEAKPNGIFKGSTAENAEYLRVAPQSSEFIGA
FGFR3, sequence (P22607 23-806): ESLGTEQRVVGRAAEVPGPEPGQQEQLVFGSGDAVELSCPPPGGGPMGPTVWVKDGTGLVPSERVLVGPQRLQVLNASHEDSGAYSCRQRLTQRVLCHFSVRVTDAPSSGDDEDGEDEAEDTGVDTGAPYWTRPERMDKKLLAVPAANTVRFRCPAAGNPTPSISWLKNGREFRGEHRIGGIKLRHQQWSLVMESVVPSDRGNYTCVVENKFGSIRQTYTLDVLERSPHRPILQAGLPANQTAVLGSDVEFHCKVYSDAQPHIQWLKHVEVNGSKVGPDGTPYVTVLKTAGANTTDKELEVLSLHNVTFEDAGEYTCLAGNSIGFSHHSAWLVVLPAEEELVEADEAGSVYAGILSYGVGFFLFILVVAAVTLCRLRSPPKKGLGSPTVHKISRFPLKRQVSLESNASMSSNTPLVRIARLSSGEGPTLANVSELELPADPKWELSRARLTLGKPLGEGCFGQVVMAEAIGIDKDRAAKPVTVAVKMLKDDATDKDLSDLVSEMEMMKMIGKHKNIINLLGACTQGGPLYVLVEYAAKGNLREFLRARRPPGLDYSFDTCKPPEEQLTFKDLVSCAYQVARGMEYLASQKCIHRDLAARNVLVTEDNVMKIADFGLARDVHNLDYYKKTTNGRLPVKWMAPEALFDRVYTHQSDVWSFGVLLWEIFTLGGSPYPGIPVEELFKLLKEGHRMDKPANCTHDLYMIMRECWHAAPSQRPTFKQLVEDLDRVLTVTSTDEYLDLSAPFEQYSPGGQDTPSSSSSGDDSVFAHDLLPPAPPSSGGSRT

Row | IC50 (NMuMG cells [1]; [6]) | IC50 (NMuMG cells [1]; [7]) | IC50 (NMuMG cells [1]; [8]) | IC50 (NMuMG cells [1]; [10]) | IC50 (NMuMG cells [1]; [11]) | SMILES | IC50 (NMuMG cells [1]; [9]) | Emax (NMuMG cells [1]; [12]) | plasma protein binding [3] | IC50 (NMuMG cells [1]; [13]) | IC50 (NMuMG cells [1]; [14]) | IC50 (NMuMG cells [1]; [15]) | IC50 (NMuMG cells [1]; [16]) | IC50 (NMuMG cells [1]; [17]) | Emax (maximal effect on cell count) (NMuMG cells [1]; [18]) | IC50 (NMuMG cells [1]; [19]) | IC50 (c-KIT) | IC50 (VEGFR1) | IC50 (VEGFR3) | IC50 (EGFR) | IC50 (FGFR1) | further results
1 | 2.63 µM | 1.18 µM | 5.06 µM | 2.96 µM | 1.11 µM | COC(=O)c1ccc2c(c1)NC(=O)/C2=C(\Nc1ccc(N(C)C(=O)CN2CCN(C)CC2)cc1)c1ccccc1 [Nintedanib] | 23 µM | 26.2% |  |  |  |  |  |  |  |  |  |  |  |  |  | IC50 (Py2T cells; Mus musculus, cell count decreased by 50% compared to DMSO control, read-out: Tox IC50): 0.502 µM; FA IC50 (focal adhesions) (Py2T cells; TGFβ plus compound, 4 days): n.m.; FN IC50 (fibronectin patches) (Py2T cells; TGFβ plus compound, 4 days): n.m.; SF IC50 (stress fibers) (Py2T cells; TGFβ plus compound, 4 days): n.m.; Emax (maximal effect on cell count) (Py2T cells; compared to reference 10 μM SB-431542 = 100%): n.m.; Cmax [2]: ~1000 nM; IC50 (TGFBR1): 0.505 µM; IC50 (TGFBR2): > 10 µM
2 | 8.03 µM | 3.95 µM | 7.3 µM | 6.43 µM | 1.08 µM | Cc1ccc(Nc2nccc(N(C)c3ccc4c(C)n(C)nc4c3)n2)cc1S(N)(=O)=O [Pazopanib] | 15.7 µM | 17.6% | above 99.9% |  |  |  |  |  |  |  |  |  |  |  |  | IC50 (NMuMG cells [1]; Mus musculus, combined FA/SF/FN; read-out: IC50 for blocking EMT in NMuMG cells): 6.4 µM; steady state blood levels required to be active in patients [4]: at least 40 μM
3 |  |  |  |  |  | Cc1cccc(-c2[nH]ncc2-c2ccc3ncccc3n2)n1 [RepSox] |  |  |  | 0.047 µM | 0.044 µM | 0.055 µM | > 3 µM | 0.088 µM | 100% | 0.0487 µM | 5.24 µM | 1.08 µM | 1.64 µM | > 10 µM | > 10 µM | IC50 (FGFR2): 4.76 µM; IC50 (FGFR3): > 10 µM; IC50 (FGFR4): > 10 µM; IC50 (PDGFRA): > 10 µM; IC50 (PDGFRB): 4.37 µM; IC50 (SRC): 6.11 µM; IC50 (TGFBR2; [20]): 3.07 µM
4 |  |  |  |  |  | Cc1cccc(-c2[nH]c(C(C)(C)C)nc2-c2ccc3nccnc3c2)n1 [SB-525334] |  |  |  | 0.276 µM | 0.261 µM | 0.243 µM | > 3 µM | 0.38 µM | 100% | 0.26 µM | > 10 µM | < 0.0003 µM | > 10 µM | > 10 µM | > 10 µM | IC50 (VEGFR2): 3.52 µM; IC50 (FGFR2): > 10 µM; IC50 (FGFR3): > 10 µM; IC50 (FGFR4): > 10 µM; IC50 (PDGFRA): > 10 µM; IC50 (PDGFRB): > 10 µM; IC50 (SRC): 5.62 µM; IC50 (TGFBR2; [20]): > 10 µM
5 |  |  |  |  |  | CNC(=O)c1cc(Oc2ccc(NC(=O)Nc3ccc(Cl)c(C(F)(F)F)c3)cc2)ccn1 [Sorafenib] |  |  | 99.7% |  |  |  |  |  |  |  |  |  |  |  |  | IC50 (NMuMG cells [1]; Mus musculus, 96 h, read-out: FA IC50 (focal adhesion formation)): 2.09 µM; IC50 (NMuMG cells [1]; Mus musculus, 96 h, read-out: FN IC50 (fibronectin patch formation)): 1.35 µM; IC50 (NMuMG cells [1]; Mus musculus, 96 h, read-out: SF IC50 (stress fibers)): 3.93 µM; IC50 (NMuMG cells [1]; Mus musculus, read-out: CCI IC50 (cell count increase)): 0.103 µM; IC50 (NMuMG cells [1]; Mus musculus, read-out: EMT (FA/SF/FN) combined IC50): 2.46 µM; Emax (NMuMG cells [1]; Mus musculus, read-out: Emax (maximal effect on cell count)): 17.5%; IC50 (NMuMG cells [1]; Mus musculus, read-out: Tox IC50): 12.6 µM; effect on TGFβ-induced loss of E-cadherin and ZO1 from junctions and vimentin filament formation (NMuMG cells [5]): only marginally stabilized
